Values joined by “and” are separate entries in the source; they are usually repeats but may differ in a detail not shown here. Equal values may be shown once.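 Protocol summary: plate cells (96-well), add compound at 5 concentrations, incubate 48 h, interpolate endpoints linearly. At the GI50, growth is halved. TGI: concentration producing complete growth inhibition.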
Key:
Experiment in all cases: NCI tumour cell line growth inhibition, 48 h
[1] = tested on: SK-MEL-2 melanoma
[2] = tested on: UACC-62 melanoma
[3] = tested on: U251 CNS
[4] = tested on: CAKI-1 renal
[5] = tested on: COLO 205 colon
[6] = tested on: SF-268 CNS
[7] = tested on: A549 NSCLC
[8] = tested on: HT29 colon
[9] = tested on: SR leukemia
[10] = tested on: RPMI-8226 leukemia

SMILES	TGI [1]	TGI [2]	TGI [3]	TGI [4]	TGI [5]	TGI [6]	TGI [7]	TGI [8]	TGI [9]	GI50 [1]	GI50 [2]	GI50 [3]	GI50 [10]	TGI [10]	GI50 [4]	GI50 [5]	GI50 [6]	GI50 [7]	GI50 [9]	GI50 [8]
CCOC(=O)n1c2ccccc2c(=O)n1CCO	> 100 µM	> 100 µM	> 100 µM	> 100 µM	> 100 µM	> 100 µM	> 100 µM	> 100 µM	> 100 µM											
O=S(=O)(NCCCNc1nccc(-c2c(-c3cccc(F)c3)nc3occn23)n1)c1cccc2ccccc12	> 100 µM	> 100 µM	> 100 µM	> 100 µM	> 100 µM	> 100 µM	> 100 µM		> 100 µM	6.99 µM	4.28 µM	8.89 µM	4860 nM	> 100 µM	3.57 µM	4.64 µM	7.39 µM	6.67 µM	8.79 µM	
CC1CCC2c3c([nH]c4ccccc34)C3C(=O)N(c4ccccc4)C(=O)C3C2C1 (stereo unspecified)	91.4 µM	82.2 µM and > 250 µM	> 250 µM	> 250 µM		97.9 µM and > 250 µM	> 250 µM	> 250 µM	> 250 µM		22.7 µM	37.5 µM					165 µM	> 250 µM	> 250 µM	
CC1=C(C(=O)CC(=O)C(=O)Nc2ccccc2C)Sc2ccccc2N1	> 100 µM	> 100 µM	> 100 µM	> 100 µM	> 61.6 µM	> 100 µM	> 100 µM	> 100 µM	> 100 µM					> 65.5 µM						
N#Cc1cccc(C2C3=C(COC3=O)N(CCO)c3cc4c(cc32)CCC4)c1 (stereo unspecified)	> 44.5 µM	> 50 µM	> 50 µM	> 50 µM	1.28 µM	> 50 µM	> 50 µM	> 18.8 µM	> 50 µM	0.319 µM	0.028 µM	0.196 µM	212 nM	> 28.1 µM	0.109 µM	0.146 µM	0.368 µM	0.23 µM	0.0486 µM	160 nM
CCc1c(C#N)c(SC(C(N)=O)c2ccccc2)nc(N2CCC(N)CC2)c1C#N (stereo unspecified)	28.5 µM	28.4 µM	30.5 µM	28.6 µM	27.8 µM	29.2 µM	44.2 µM	30.7 µM	38.1 µM	14.7 µM	15 µM	15.7 µM	13700 nM	34.4 µM	14.7 µM	14.2 µM	14.2 µM	18.4 µM	16.2 µM	14300 nM
O=C1c2ccoc2C(=O)c2oc(=O)ccc21	22 µM	31.5 µM	20.8 µM	> 62.2 µM	> 55.4 µM	27.1 µM	42 µM	> 78.8 µM	3.83 µM					22.2 µM						
CC(=O)OC1COC(Oc2c(C)c3c4c(c2O)[C@@H](C)CC[C@@H]4[C@@H](C)C[C@H]3C=C(C)C)C(O)C1O (stereo partly specified)	> 100 µM	39.4 µM	41.6 µM	30.9 µM	> 100 µM	38.5 µM	43.7 µM		25.7 µM	47.1 µM	18.8 µM	19.5 µM	16600 nM	39.5 µM	16 µM	26.4 µM	15.4 µM	16.8 µM	9.13 µM	
COc1cc(OC)c(/C=C/C(=O)c2c(N)cc(OC)cc2OC)c(OC)c1	> 100 µM	> 100 µM	> 100 µM	> 100 µM	> 45.1 µM	> 100 µM	> 100 µM	14.6 µM	> 100 µM	0.528 µM	0.379 µM	0.504 µM	815 nM	> 100 µM	0.38 µM	2.94 µM	0.609 µM	0.733 µM	0.242 µM	3300 nM
Nc1c(C(=O)Nc2ccccn2)sc2nc3c(cc12)CCCCCC3	9.83 µM	10.3 µM	9.07 µM	9.33 µM	13.6 µM	22.6 µM	9.17 µM	5.67 µM	> 50 µM	0.965 µM	0.376 µM	0.97 µM	915 nM	30 µM	1.56 µM	1.49 µM	2.48 µM	1.65 µM	0.197 µM	360 nM
CC(C)c1cc(C(C)C)c(Cl)c(Cl)c1O (tested in a mixture with another compound)	46.5 µM	44 µM	> 100 µM	47 µM	39.8 µM	42.4 µM	> 100 µM	58.8 µM	63.4 µM					> 100 µM						
Cc1ccc(C(=O)N2C/C(=C/c3ccccc3)C(=O)/C(=C/c3ccccc3)C2)cc1	> 100 µM	25.8 µM	> 100 µM	> 100 µM	> 100 µM	> 100 µM	> 100 µM	7 µM	9.09 µM	> 62.8 µM	4.49 µM	3.28 µM	131 nM	0.971 µM	> 57.5 µM	8.7 µM	10.8 µM	63.3 µM	0.461 µM	2030 nM
CN1CC[C@]23c4c5ccc(O)c4OC2c2[nH]ncc2C[C@H]3[C@H]1C5 (stereo partly specified)	> 100 µM	> 100 µM	> 100 µM	> 100 µM	> 100 µM	> 100 µM	> 100 µM	> 100 µM	> 100 µM					> 100 µM						
CC(C)(C)c1cc(C(OCCl)(C(F)(F)F)C(F)(F)F)c2c(c1)C(C(F)(F)F)(C(F)(F)F)OC21c2ccccc2C(=O)c2ccccc21	> 100 µM		> 100 µM	> 100 µM	> 100 µM		> 100 µM	> 100 µM	> 100 µM					> 100 µM						
CN(c1ccc(NC(=O)NCCN2CCOCC2)cc1)c1ccnc(Nc2ccc(CS(C)(=O)=O)cc2)n1	> 25 µM	> 25 µM	> 25 µM	> 25 µM	> 25 µM	> 25 µM	> 25 µM	> 25 µM	> 25 µM	> 25 µM	> 25 µM	> 25 µM	> 25000 nM	> 25 µM	> 25 µM	> 16.8 µM	> 25 µM	> 25 µM	> 25 µM	> 25000 nM

— PubChem BioAssay (NCI)
